Paper PMC11476419, “Analysis of Punicalin and Punicalagin Interaction with PDIA3 and PDIA1” (International Journal of Molecular Sciences, 2024)

How the values were obtained:
[1] = tested on: U87 MG cells; assay: Cell viability by MTT assay; format: cell-based, human; settings: 1 µM to 20 µM, 24 h, 48 h, 72 h
Experimental: (§1) The cell viability assay was used to evaluate the effect of punicalin as a PDI inhibitor. T98G and U87 MG glioblastoma cell lines were treated with increasing concentrations of punicalin, and the reduction in MTT substrate was determined after 24 h, 48 h, and 72 h. […] Here, we compared the ability of punicalin with that of punicalagin to prevent the growth of these cells (Figure 5).
(§2) T98G and U-87 MG cells were seeded into 96-well plates (10.000 cells/well). The effect of punicalin, at the final concentration of 1 µM to 20 µM, was evaluated on cell viability after 24 h and 48 h of incubation. To assess cell viability, the enzymatic reduction of MTT (3-(4,5-dimethylthiazol-2-yl)-2,5-diphenyl-2H-tetrazolium bromide) (Sigma-Aldrich, Milan, Italy, cat. M2128) to MTT formazan was used. Cell cultures were further incubated for 2 h in culture medium containing 0.5 mg/mL MTT. After 2 h of incubation, the solution was removed and the blue MTT formazan product was dissolved in DMSO (Sigma-Aldrich, cat. D8418). After 30 min at room temperature, the absorbance of the formazan solution was spectrophotometrically read at 570 nm using an Appliskan® plate reader (Thermo Fisher Scientific, Monza, Italy).

[2] = tested on: T98G cells; assay: Cell viability by MTT assay; format: cell-based, human
Experimental: as §1, §2

[3] = biological target: T1, PDIA3 (Homo sapiens, UniProt P30101); assay: Differential scanning fluorimetry (protein thermal shift); format: binding
T1 construct: The mature recombinant form (devoid of the N-terminal presence) of the human PDIA3 protein was expressed and purified; made in house
T1 sequence (P30101 25-505): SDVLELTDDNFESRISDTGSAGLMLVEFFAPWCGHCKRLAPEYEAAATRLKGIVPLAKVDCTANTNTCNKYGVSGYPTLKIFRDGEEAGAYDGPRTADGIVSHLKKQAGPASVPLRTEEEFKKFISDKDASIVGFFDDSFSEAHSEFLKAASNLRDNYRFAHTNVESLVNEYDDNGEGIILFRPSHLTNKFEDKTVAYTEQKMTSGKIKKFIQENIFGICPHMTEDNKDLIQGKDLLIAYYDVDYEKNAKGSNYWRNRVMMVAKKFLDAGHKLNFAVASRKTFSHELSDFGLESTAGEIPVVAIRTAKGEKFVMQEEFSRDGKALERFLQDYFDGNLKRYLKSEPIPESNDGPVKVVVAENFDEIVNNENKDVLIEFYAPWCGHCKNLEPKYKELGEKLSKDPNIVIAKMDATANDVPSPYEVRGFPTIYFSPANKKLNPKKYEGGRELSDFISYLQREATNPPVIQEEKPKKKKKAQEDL
Experimental: (§3) The effect of punicalin and punicalagin on the stability of both proteins was evaluated by differential scanning fluorimetry (DSF). Initially, PDIA1 and PDIA3 were incubated at 25 °C for 20 min with both substances at 5 µM and 20 µM concentrations. […] The reading was optimized at intervals of 0.2 °C every 5 s. Once the fluorescence profile was obtained, the data were analyzed with the GraphPad prism program, by either fitting data with a Boltzmann equation or calculating the first derivative. In DSF analyses, a gradual increase in fluorescence is observed, due to a conformational change in the protein, which reaches a maximum value and then decreases because of protein precipitation.
(§4) To evaluate Tm, we focused the attention on the main transition, and thus we fitted, with a Boltzmann equation, the data in the range of 25–55 °C for PDIA3 and in the range of 45–70 °C for PDIA1. Again, the two substances show a destabilizing effect, which was more evident for PDIA3 than for PDIA1. In fact, punicalagin and punicalin at a 20 µM concentration cause a shift of Tm of at least 6 °C in the case of PDIA3, while this is approximately 3 °C for PDIA1 (Figure 7).
(§5) Protein stability in the absence and presence of punicalagin/punicalin was tested by means of the fluorescence-based thermal stability assay or differential scanning fluorimetry (DSF) developed by Pantoliano and coworkers. DSF records the fluorescence emission signal from the binding of a dye (SYPRO orange) to the exposed hydrophobic patches upon protein unfolding. Fluorescence measurements were performed using a CFX96 Connect RT-PCR instrument (BioRad, Hercules, CA, USA). Aliquots of 18 μL of protein solution (2 μM), freshly diluted in Tris Buffered saline (50 mM TrisHCl, pH 8.0, 150 mM NaCl) containing 0.1 mM DTT, 0.2 mM EDTA, and 1: 1000 dilution of SYPRO Orange (50 mM stock solution in DMSO), were distributed in a 96-well plate. Sample wells were added with punicalagin or punicalin at a final concentration of 5 uM or 20 μM by adding 2 μL of a 10-fold concentrated freshly prepared stock solution. As control, the protein solution was added with 2 μL of the dilution buffer. A melting point analysis was recorded by increasing the temperature from 25 to 70 °C with an increment of 0.2 °C every 5 s and reading, at each temperature, the fluorescence in fluorescence resonance energy transfer mode (FRET). Each measure was the average of three sample well readings, and each DSF experiment was repeated at least three times. To calculate Tm values, DSF data from the melting curve were exported and fitted to a Boltzmann equation using GraphPad software. The effect of punicalagin and punicalin was evaluated comparing the Tm values in the presence and absence of each molecule.

[4] = biological target: T2, PDIA1 (Homo sapiens, UniProt P07237); assay: as above; format: binding; settings: PDIA1, compound 20 µM
T2 construct: The mature human PDIA1 with an N-terminal His6x-tag was expressed and purified; His6 (N); made in house
T2 sequence (P07237 18-508): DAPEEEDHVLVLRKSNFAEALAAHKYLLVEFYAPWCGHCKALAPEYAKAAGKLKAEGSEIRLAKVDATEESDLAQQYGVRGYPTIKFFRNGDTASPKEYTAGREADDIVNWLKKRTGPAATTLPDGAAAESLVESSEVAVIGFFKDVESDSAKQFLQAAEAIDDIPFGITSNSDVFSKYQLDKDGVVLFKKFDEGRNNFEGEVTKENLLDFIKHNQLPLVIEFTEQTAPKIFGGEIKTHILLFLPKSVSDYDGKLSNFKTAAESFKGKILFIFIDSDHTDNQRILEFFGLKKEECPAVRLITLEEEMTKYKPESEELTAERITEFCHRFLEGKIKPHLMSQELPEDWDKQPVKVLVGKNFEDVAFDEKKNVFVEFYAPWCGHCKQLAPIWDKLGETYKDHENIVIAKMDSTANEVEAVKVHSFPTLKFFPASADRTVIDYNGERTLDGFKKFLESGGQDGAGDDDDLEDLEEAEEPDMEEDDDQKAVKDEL
Experimental: as §3, §4, §5

- left shift of first transition (first-derivative graph) ([3]; PDIA3, compound 20 µM): about 3 °C
- shift towards lower temperature of second transition (first-derivative graph) ([3]; PDIA3, compound 20 µM): more than 10 °C
- shift of Tm (destabilizing, Boltzmann fit) ([3]; PDIA3, compound 20 µM, fit range 25–55 °C): at least 6 °C
- Tm of PDIA3 after addition of compound ([3]; PDIA3 alone Tm 46 °C): below 40 °C
- change in the thermal stability of PDIA3, shift ([3]; abstract statement): up to 8 °C
- shift towards lower temperature of second main transition (first-derivative graph) [4]: about 5 °C
- shift of Tm (destabilizing, Boltzmann fit) ([4]; fit range 45–70 °C): approximately 3 °C
Structure (SMILES): O=C1OC[C@H]2OC(O)[C@H](O)[C@@H](O)[C@@H]2OC(=O)c2cc(O)c(O)c(O)c2-c2c(O)c(O)c3oc(=O)c4c(c(O)c(O)c5oc(=O)c2c3c54)-c2c1cc(O)c(O)c2O (mixture of isomers) [Punicalin, punicalin]
- effect on cell viability (MTT) [1]: the effect becomes evident only at the highest concentration
- effect on cell viability (MTT) ([2]; 1 µM to 20 µM, 24 h, 48 h, 72 h): concentration- and time-dependent decrease in cell viability
- effect on cell viability ([2]; 20 µM): significantly reduced the cell viability
